Results as given in patent US8759334B2, “Compounds useful for the treatment of metabolic and inflammatory diseases” (Galapagos NV, priority 2011, dated 2014).

What follows are compounds tested against T1, GPR43 (Homo sapiens, UniProt O15552) (assay: Calcium mobilization assay without probenecid). Details: GPR43 stably expressing cells, triggered with sodium acetate at EC80, read-out: GPR43 assay without probenicid IC50.
T1 construct: expressed in transfected cells
T1 sequence (O15552 1-330): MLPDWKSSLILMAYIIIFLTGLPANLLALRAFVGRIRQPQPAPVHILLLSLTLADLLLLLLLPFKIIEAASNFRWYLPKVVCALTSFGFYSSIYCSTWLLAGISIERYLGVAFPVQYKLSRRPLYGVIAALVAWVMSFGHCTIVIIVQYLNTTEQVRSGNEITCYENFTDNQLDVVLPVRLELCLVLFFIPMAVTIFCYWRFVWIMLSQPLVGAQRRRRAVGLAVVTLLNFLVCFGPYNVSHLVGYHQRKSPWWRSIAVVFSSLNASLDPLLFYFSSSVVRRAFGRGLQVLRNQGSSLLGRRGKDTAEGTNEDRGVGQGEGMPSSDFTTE
Type: cell-based
Experimental: The following assay can be used for determination of GPR43 activation. The assay measures intracellular calcium release induced by activation of GPR43. On day 1, GPR43 stably expressing cells were detached with mild trypsinization (Trypsin, 0.25% with EDTA 4Na, 5× diluted in PBS) centrifuged at 1000 rpm for 5 min and resuspended at 6.000 cells/25 μL medium (DMEM supplemented with 10% FBS, 10 μg/mL puromycin and 1% Pen/Strep). The cells were distributed in poly-D-lysine coated 384 well plates (black with clear bottom, 25 μL/well) and incubated overnight at 37° C. 10% CO2. On day 2, 25 μL of a fluorescent Ca^2+ indicator (Calcium 4 assay; Molecular Devices) was added on top of the cells and incubated for 2 h at 37° C. Subsequently, compounds at increasing concentration (10 μL/well) were added to the plate and incubated for 15 min at 37° C. Finally the cells were triggered with sodium acetate at EC80 concentration (concentration which gives 80% of the activity of the GPR43) and the Ca-flux was measured simultaneously to the trigger injection on a fluorescence plate reader (FlexStation3), this measures the antagonist activity of the compounds. To measure agonist activity of the compounds, compound was added to the well and the Ca-flux was measured simultaneously to the injection of compound.

Question: With `CC1(C(=O)NCc2ccc(Cl)cc2)CCN1C(=O)Cc1ccc(Cl)cc1Cl` (stereo not shown) [Compound 1, 1-[2-(2,4-Dichloro-phenyl)-acetyl]-2-methyl-azetidine-2-carboxylic acid 4-chloro-benzylamide] as the compound, how does the IC50 read?
Answer: The IC50 was 101 to 500 nM.

Question: With `Cc1cc(C)cc(CC(=O)N2CCC2(C)C(=O)N(C)Cc2ccc(Cl)cc2)c1` (stereo not shown) [Compound 3, 1-[2-(3,5-Dimethyl-phenyl)-acetyl]-2-methyl-azetidine-2-carboxylic acid (4-chloro-benzyl)-methyl-amide] as the compound, how does the IC50 read?
Answer: Its IC50 is greater than 1000 nM.

Question: Which IC50 does the source give for `CN(Cc1ccc(Cl)cc1)C(=O)C1(C)CCN1C(=O)Cc1cccc(I)c1` (stereo not shown) [Compound 8, 1-[2-(3-iodo-phenyl)-acetyl]-2-methyl-azetidine-2-carboxylic acid (4-chloro-benzyl)-methyl-amide] here?
Answer: The IC50 was 501 to 1000 nM.

Question: With `CN(Cc1ccc(Cl)cc1)C(=O)C1(C)CCN1C(=O)Cc1csc2ccccc12` (stereo not shown) [Compound 13, 1-(2-Benzo[b]thiophen-3-yl-acetyl)-2-methyl-azetidine-2-carboxylic acid (4-chloro-benzyl)-methyl-amide] as the compound, how does the IC50 read?
Answer: The IC50 was 101 to 500 nM.

Question: Which IC50 does the source give for `CN(Cc1ccc(Cl)cc1)C(=O)C1(C)CCN1C(=O)Cc1ccc2ccccc2c1` (stereo not shown) [Compound 14, 2-Methyl-1-(2-naphthalen-2-yl-acetyl)-azetidine-2-carboxylic acid (4-chloro-benzyl)-methyl-amide] here?
Answer: The IC50 was 501 to 1000 nM.

Question: With `Cc1cc(C)cc(CC(=O)N2CCC2(C)C(=O)N(CCO)Cc2ccc(Cl)cc2)c1` (stereo not shown) [Compound 47, 1-[2-(3,5-Dimethyl-phenyl)-acetyl]-2-methyl-azetidine-2-carboxylic acid (4-chloro-benzyl)-(2-hydroxy-ethyl)-amide] as the compound, how does the IC50 read?
Answer: Its IC50 is 101 to 500 nM.

Question: For `COC(=O)CCN(Cc1ccc(Cl)cc1)C(=O)C1(C)CCN1C(=O)Cc1cc(C)cc(C)c1` (stereo not shown) [Compound 62, 3-((4-Chloro-benzyl)-{1-[2-(3,5-dimethyl-phenyl)-acetyl]-2-methyl-azetidine-2-carbonyl}-amino)-propionic acid methyl ester], which IC50 is on record?
Answer: The IC50 was 501 to 1000 nM.

Question: With `Cc1cc(C)cc(CC(=O)N2CCC2(C)C(=O)N(CCCC(=O)O)Cc2ccc(Cl)cc2)c1` (stereo not shown) [Compound 64, 4-((4-Chloro-benzyl)-{1-[2-(3,5-dimethyl-phenyl)-acetyl]-2-methyl-azetidine-2-carbonyl}-amino)-butyric acid] as the compound, how does the IC50 read?
Answer: The IC50 was 101 to 500 nM.

Question: With `Cc1cc(C)cc(CC(=O)N2CCC2(C)C(=O)N(CCC(=O)O)Cc2ccc(Cl)cc2)c1` (stereo not shown) [Compound 65, 3-((4-chloro-benzyl)-{1-[2-(3,5-dimethyl-phenyl)-acetyl]-2-methyl-azetidine-2-carbonyl}-amino)-propionic acid] as the compound, how does the IC50 read?
Answer: The IC50 was greater than 1000 nM.

Question: Which IC50 does the source give for `CC1(C(=O)N(CCCO)Cc2ccc(Cl)cc2)CCN1C(=O)Cc1csc2ccccc12` (stereo not shown) [Compound 70, 1-(2-Benzo[b]thiophen-3-yl-acetyl)-2-methyl-azetidine-2-carboxylic acid (4-chloro-benzyl)-(3-hydroxy-propyl)-amide] here?
Answer: Its IC50 is 101 to 500 nM.

Question: With `Cc1cc(C)cc(CC(=O)N2CC[C@@]2(C)C(=O)N(CC(=O)O)Cc2ccc(Cl)cc2)c1` [Compound 81a, ((4-Chloro-benzyl)-{(S)-1-[2-(3,5-dimethyl-phenyl)-acetyl]-2-methyl-azetidine-2-carbonyl}-amino)-acetic acid] as the compound, how does the IC50 read?
Answer: The IC50 was greater than 1000 nM.

Question: For `CN(Cc1ccc(Cl)cc1)C(=O)C1(C)CCN1C(=O)Cc1csc2ccc(Cl)cc12` (stereo not shown) [Compound 92, 1-[2-(5-Chloro-benzo[b]thiophen-3-yl)-acetyl]-2-methyl-azetidine-2-carboxylic acid (4-chloro-benzyl)-methyl-amide], which IC50 is on record?
Answer: The IC50 was greater than 1000 nM.

Question: How did the IC50 turn out when `Cc1ccc2scc(CC(=O)N3CCC3(C)C(=O)N(C)Cc3ccc(Cl)cc3)c2c1` (stereo not shown) [Compound 93, 1-[2-(5-Methyl-benzo[b]thiophen-3-yl)-acetyl]-2-methyl-azetidine-2-carboxylic acid (4-chloro-benzyl)-methyl-amide] was run?
Answer: Its IC50 is greater than 1000 nM.
